From US11440932B2, “Surfactant compounds-clips for extraction and stabilization in solution of membrane proteins” (CENTRE NATIONAL DE LA RECHERCHE SCIENTIFIQUE, priority 2017, dated 2022) come the findings set out here.

T1 sequence (O06967 whole entry): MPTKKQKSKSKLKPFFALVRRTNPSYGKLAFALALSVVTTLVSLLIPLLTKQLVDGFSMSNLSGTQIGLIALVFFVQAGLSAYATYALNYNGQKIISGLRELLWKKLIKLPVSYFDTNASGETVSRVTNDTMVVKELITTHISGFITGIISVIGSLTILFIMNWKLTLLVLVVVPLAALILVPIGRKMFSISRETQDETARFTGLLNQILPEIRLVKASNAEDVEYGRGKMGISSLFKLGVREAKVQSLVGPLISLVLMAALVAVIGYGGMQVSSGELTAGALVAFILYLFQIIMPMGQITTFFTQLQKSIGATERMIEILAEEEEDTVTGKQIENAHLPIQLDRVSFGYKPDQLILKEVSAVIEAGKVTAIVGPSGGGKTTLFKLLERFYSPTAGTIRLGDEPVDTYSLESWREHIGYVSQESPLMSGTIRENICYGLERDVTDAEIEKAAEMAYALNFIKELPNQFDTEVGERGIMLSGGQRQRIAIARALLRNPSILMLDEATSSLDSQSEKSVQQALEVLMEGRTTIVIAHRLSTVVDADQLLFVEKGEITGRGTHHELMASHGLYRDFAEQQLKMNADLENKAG

This experiment has as its target T1, BmrA (Bacillus subtilis, UniProt O06967).
T1 construct: His tag; made in house; host or cells: E. coli C41(DE3)
Briefly: ATPase activity of BmrA after addition of detergents. The format is biochemical, bacterial; produced in E. coli C41 DE3. The conditions noted are these: at extracting concentrations; relative to protein without compound. The method, then:
FIG. 7 depicts the effect of the detergents of the invention on the functionality of BmrA (ATPase activity, %). The membrane fraction enriched in BmrA (˜25%) diluted to 2 g/l has the compounds added to it at the concentrations (mM) indicated (panel A, from top to bottom: 3.7e 10.7 mM, 3.7e 8.6 mM, 3.7e 6.4 mM, 3.7e 4.3 mM, 3.7e 2.2 mM, 3.7e 1.1 mM, 3.7d 4 mM, 3.7d 3 mM, 3.7d 2 mM, 3.7d 1 mM, 3.7d 0.8 mM, 3.7d 0.6 mM, 3.7d 0.05 mM, 3.7d 0.03 mM, 3.7d 0.02 mM, 3.7c 13 mM, 3.7c 10.4 mM, 3.7c 10 mM, 3.7b 1.5 mM, 3.7b 0.7 mM, 3.7b 0.5 mM, 2.3gNa2 20.5 mM, 2.3gK2 19.3 mM, 2.3f 21.1 mM, 2.3e 22 mM, 2.3d 23.2 mM, 2.3a 3.2 mM, 1.5a 22 mM, DDM 20 mM, DDM 2 mM, DDM 10 mM, DOM 2 mM, DDM 1 mM, LMNG 10 mM, LMNG 1 mM, LMNG 0.1 mM, LMNG 0.01 mM, FA3 27 mM, FA3 9 mM, FA3 2 mM, FA3 1 mM, TX100 16 mM; panel B from top to bottom: compounds of the invention 5.3d 3.2 mM, 5.3c 3.3 mM, 5.3b 11.7 mM, 5.3b 2.9 mM, 5.3a 3 mM, 4.6c 14.6 mM, 4.6b 15.2 mM, 4.5c 18.6 mM, 4.5b 19.6 mM, 3.9a 8 mM, 3.9a 0.51 mM, 3.9a 0.31 mM, 3.9a 0.11 mM, 3.7l 12.01 mM, 3.7l 6.01 mM, 3.7l 3 mM, 3.7l 1 mM, 3.7k 10 mM, 3.7k 3 mM, 3.7j 3 mM, 3.7j 2 mM, 3.7j 1 mM, 3.7j 0.6 mM, 3.7j 0.03 mM, 3.7j 0.02 mM, 3.7j 1 mM, 3.7i 0.3 mM, 3.7h 3 mM, 3.7h 2 mM, 3.7h 1 mM, 3.7h 0.6 mM, 3.7h 0.58 mM, 3.7h 0.5 mM, 3.7h 0.35 mM, 3.7h 0.1 mM, 3.7h 0.5 mM, 3.7h 0.35 mM, 3.7h 0.1 mM, 3.7h 0.05 mM, 3.7h 0.03 mM, 3.7h 0.02 mM, 3.7g 12.5 mM, 3.7g 9 mM, 3.7g 7.5 mM, 3.7g 5 mM, 3.7g 3 mM, 3.7g 1 mM, 3.7f 3.2 mM, 3.7f 2 mM, 3.7f 1 mM, 3.7f 0.061 mM, 3.7f 0.031 mM, 3.7f 0.015 mM). After incubation for 2 h at 4° C., the ATPase activity is measured. The solutions are subsequently centrifuged for 1 h at 4° C., 100 000×g, and the supernatants deposited on 10% SDS-PAGE (cf. FIG. 8). The gray and black histograms correspond to the concentrations at which BmrA is partially (gray) or entirely (black) extracted, according to these SDS-PAGE. The ATPase activity is in % relative to that of the protein without compound, 0.7 μmol ATP hydrolyzed/min/mg of proteins.
The molecules of the invention which extract BmrA in the previous example were tested at different sub-solubilizing and solubilizing concentrations, to evaluate their impact on the native and functional state of the protein. The latter is monitored by the hydrolysis of ATP which is carried out by the protein during the transport cycle, coupled with translocation of the solute. As reported previously (Matar-Merheb, R. et al. ([11])), the ATPase activity of BmrA is a highly sensitive marker of the state of the protein, the latter being particularly sensitive to the detergents used during the extraction step, where said detergents replace the lipids on contact with the membrane protein.
Procedure. BmrA produced and enriched in the plasma membrane of E. coli C41 DE3 is prepared as described previously (Matar-Merheb, R. et al. ([11])). The membranes are diluted at 2 g/l in a 20 mM Tris-HCl buffer, pH 8.0, 100 mM NaCl, 15% glycerol, with protease inhibitors (Roche) added thereto at an amount of one tablet/100 ml. The mixture (T) is incubated for 2 h at 4° C. and the ATPase activity is measured using the coupled-enzyme system, separating off the vanadate-insensitive activity from the total activity, Centeno, F. et al. Expression of the sarcoplasmic reticulum Ca^2+-ATPase in yeast. FEBS Lett 354, 117-122 (1994) ([25])). The solutions are subsequently centrifuged for 1 h at 4° C. at 100 000×g in order to separate the extracted fraction (supernatant, S) from that which is not extracted (pellet). The supernatants are deposited on 10% SDS-PAGE and stained with Coomassie blue after migration (FIG. 8). DDM, LMNG (Chae, P. S. et al. ([6])), TritonX100 and FA3 (Lee, S. C. et al. (2013) ([9])) are tested as reference detergents. The DDM and LMNG originate from Anatrace, the Triton X100 originates from Sigma-Aldrich and the FA3 from Avanti-Polars.
For the compound `CCCCCCCCCCCC(=O)N[C@@H](COCc1cn(CCO[C@@H]2OC(CO)[C@@H](O)C(O)C2O)nn1)C(=O)N[C@H](CCC(=O)O)C(=O)O` (stereo partly drawn) [Compound 3.7b], the “change of the ATPase activity of BmrA on extraction” value (from here on “change”) is on record as 1.5 ×.

As for `CCCCCCCCCCCCCC(=O)N[C@@H](COCc1cn(CCO[C@@H]2OC(CO)[C@@H](O)C(O)C2O)nn1)C(=O)N[C@H](CCC(=O)O)C(=O)O` (stereo partly drawn) [Compound 3.7c], the “change” value is 1.5 ×. For the compound `CCCCCCCCCCCCCC(=O)N[C@@H](COCc1cn(CCO[C@@H]2OC(CO)[C@@H](O[C@H]3OC(CO)[C@@H](O)C(O)C3O)C(O)C2O)nn1)C(=O)N[C@H](CCC(=O)O)C(=O)O` (stereo partly drawn) [Compound 3.7e], the “change” value was 2 ×. `CCCCCCCCCCCCCC(=O)N[C@@H](COCc1cn(CCOCCOCCOCCOCCOCCOC)nn1)C(=O)N[C@H](CCC(=O)O)C(=O)O` [Compound 3.7g]: the “change” value is recorded as 1.5 ×. With `CCCCCCCCCCCCC(CCCCCCCCCCCC)C(=O)N[C@@H](COCc1cn(CCO[C@@H]2OC(CO)[C@@H](O)C(O)C2O)nn1)C(=O)N[C@H](CCC(=O)O)C(=O)O` (stereo partly drawn) [Compound 3.7j], the “change” value is “maintaining”. Under `CCCCCCCCCCCCCC(=O)N[C@@H](COCc1cn(CCO[C@@H]2OC(CO)[C@@H](O)C(O)C2O)nn1)C(=O)N[C@@H](CCC(=O)O)C(=O)NCC(=O)O` (stereo partly drawn) [Compound 3.7l] stands “maintaining”.
